Measurements as given in publication PMC8395260, “Co-Aggregation of S100A9 with DOPA and Cyclen-Based Compounds Manifested in Amyloid Fibril Thickening without Altering Rates of Self-Assembly” (International Journal of Molecular Sciences, 2021).
Non-standard residues stand in square brackets, D forms with d. Residues, ends and D or L forms follow the SMILES beside them. Dopa = N[C@@H](Cc1ccc(O)c(O)c1)C(=O)O

Target: T1, S100A9 (Homo sapiens, UniProt P06702)
T1 construct: made in house; host or cells: E. coli
T1 sequence (P06702 1-114): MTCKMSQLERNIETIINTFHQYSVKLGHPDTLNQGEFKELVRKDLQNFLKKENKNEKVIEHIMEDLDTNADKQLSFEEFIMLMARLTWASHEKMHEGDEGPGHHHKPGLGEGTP
Assay: Titration of S100A9 with compounds followed by intrinsic fluorescence
Details: intrinsic Trp 88 fluorescence, single binding site model; legend: 75 μM S100A9, PBS pH 7.4, 20 °C; method: 1 μM S100A9, 5 nM to 2.4 μM compound, 3 h room temperature; triplicates
Procedure: S100A9 was titrated by each compound of interest following the changes in intrinsic fluorescence intensity, since S100A9 has one aromatic residue: Trp 88. The fitting was performed using a single binding site model to determine the apparent dissociation constant for each compound. […] A twice larger Kd was determined only for DOPA-D-H-DOPA binding.
Figure 4 Binding of DOPA and cyclen-based compounds to native S100A9 followed by intrinsic fluorescence. (a–e) Normalized titrations of S100A9 by corresponding compounds. Each compound is indicated above corresponding figure (a–e) and their Kd in captions. Symbols indicate the experimental data points and lines the fitting with a single binding site model. 75 μM S100A9, PBS, pH 7.4, and 20 °C.
First, 1 μM S100A9 was incubated in PBS, pH 7.4, room temperature for 3 h in the absence or presence of 5 nM to 2.4 μM of the studied compounds prior to fluorescence measurements. The final volume was kept at 400 μL for all samples. The fluorescence emission spectra were recorded using a Jasco spectrofluorometer FP 6500 (Japan), setting the excitation at 296 nm and emission at 350 nm wavelengths, respectively, with a 3 nm band-width on both the excitation and emission. The measurements were performed in triplicates. Fitting of the normalized titration curves was performed by using a single site binding model.

SMILES	apparent dissociation constant Kd
N[C@@H](Cc1ccc(O)c(O)c1)C(=O)N[C@@H](CC(=O)O)C(=O)N[C@@H](Cc1c[nH]cn1)C(=O)N[C@@H](Cc1ccc(O)c(O)c1)C(=O)O [DOPA-D-H-DOPA] (H-[Dopa]DH[Dopa]-OH)	sub-micromolar range
N[C@@H](Cc1ccc(O)c(O)c1)C(=O)N[C@@H](CC(=O)O)C(=O)N[C@@H](Cc1c[nH]cn1)C(=O)O [DOPA-D-H] (H-[Dopa]-Asp-His-OH)	sub-micromolar range

Same assay, conditions: intrinsic Trp 88 fluorescence, single binding site model; legend: 75 μM S100A9, PBS pH 7.4, 20 °C; method: 1 μM S100A9, 5 nM to 2.4 μM compound, 3 h room temperature; triplicates; read-out: apparent dissociation constant Kd

SMILES	Kd
N[C@@H](Cc1ccc(O)c(O)c1)C(=O)N[C@@H](CC(=O)O)C(=O)N[C@@H](Cc1c[nH]cn1)C(=O)O [DOPA-D-H] (H-[Dopa]-Asp-His-OH)	0.11 ± 0.04 µM

System: not listed separately
Assay: ThT incubation of individual compounds (amyloid self-assembly of the compounds)
Format: physicochemical
Details: 75 μM compound, PBS pH7.4, 42 °C, same period as S100A9 kinetics
Procedure: Figure S1. Time dependence of Thioflavin-T fluorescence changes during its incubation with S100A9 and DOPA and Cyclen-based compounds. Thioflavin-T fluorescence in arbitrary units is shown along y-axis, time in minutes – along x-axis. Increase in Thioflavin-T fluorescence in the presence of 75 μM S100A9 reflects its amyloid self-assembly and shown in brown. By contrast, there were no increase in Thioflavin-T fluorescence upon incubation with 75 μM of corresponding compounds as […]
green line, for DOPA-H-H-DOPA – by orange, DOPA-D-H – by chartreuse, H-E-Cyclen – by red and […]
assembly of these compounds under the conditions of our experiments. PBS, pH7.4 and 42 °C.
(1 picture or pasted object on this page, not shown here)

SMILES	ThT fluorescence upon incubation of compound alone (amyloid self-assembly)
N[C@@H](Cc1ccc(O)c(O)c1)C(=O)N[C@@H](CC(=O)O)C(=O)N[C@@H](Cc1c[nH]cn1)C(=O)N[C@@H](Cc1ccc(O)c(O)c1)C(=O)O [DOPA-D-H-DOPA] (H-[Dopa]DH[Dopa]-OH)	flat lines close to zero
N[C@@H](Cc1ccc(O)c(O)c1)C(=O)N[C@@H](CC(=O)O)C(=O)N[C@@H](Cc1c[nH]cn1)C(=O)O [DOPA-D-H] (H-[Dopa]-Asp-His-OH)	flat lines close to zero

System: S100A9 amyloid fibrils
Assay: AFM imaging of S100A9 fibrils, fibril height distributions
Format: biochemical
Details: molar ratio 1:1; PBS pH 7.4, 42 °C
Procedure: In order to complement the kinetic analysis, we also monitored the S100A9 amyloid formation by AFM imaging (Figure 3). The amyloid fibrils of S100A9 alone that developed after 100 h of incubation in PBS, pH 7.4, and 42 °C were very flexible, relatively short, i.e., within 200–600 nm length, and also characterized by a narrow distribution of the heights with a median at ca. 1.6 nm in the AFM cross-sections. In the presence of all DOPA-based compounds, the fibrils of S100A9 become thicker with median heights of ca. 2.0–2.2 nm, and generally longer (Figure 3). […] At the molar ratio of S100A9 to DOPA-based compounds of 1:10, the height of fibrils became even thicker, shifting towards 2.2–2.8 nm median height and in the case of DOPA-D-H-DOPA to 3.0–3.2 nm (Figure 3), while their lengths remained about the same as at the 1:1 molar ratio.
Figure 3 AFM imaging of S100A9 fibrils in the absence and presence of DOPA and cyclen-based compounds and the analysis of fibril height distributions. (a) Representative AFM image of S100A9 fibrils incubated alone. (b,c) Distribution of fibril heights measured in AFM cross-sections. The same distribution is shown in both columns to facilitate the comparison with the following height distributions carried out in the presence of compounds. (d,g,j,m,p) Representative AFM images of S100A9 fibrils in the presence of DOPA and cyclen-based compounds at a 1:1 molar ratio of S100A9 to compound. (e,h,k,n,q) Distributions of fibril heights measured in AFM cross-sections at the S100A9 to compound molar ratio of 1:1 and (f,i,l,o,r) at molar ratio of 1:10. Image sizes are 2.5 × 2.5 μm. The compounds and molar ratios are indicated above the figures. Samples were incubated for 50 h in PBS, pH 7.4, and 42 °C. […]
S100A9 protein was expressed in E. coli and purified as described previously. Freshly dissolved S100A9 in PBS, pH 7.4 was used in all measurements. Lyophilized S100A9 was dissolved on ice in PBS buffer at pH 7.4. Then, S100A9 samples were filtered using a 0.22 µm spin membrane filter to remove any preformed aggregates. These solutions were directly subjected to experiments. To produce amyloids, S100A9 was incubated in PBS, pH 7.4, and 42 °C. The cyclic compounds (Figure 1) were dissolved in PBS at pH 7.4, and their stock solutions were kept frozen prior to measurements.
AFM imaging was performed by using a BioScope Catalyst AFM (Bruker; Phoenix, AZ, USA), operating in a peak force mode in air. The scan rate was 0.51 Hz and the resolution was 512 × 512 pixels. Bruker MSLN and SLN cantilevers were used in all measurements. Imaging was also conducted using a PicoPlus AFM (Molecular Imaging), equipped with a 100 μm scanner, operating in tapping mode in air. The resonance frequency was set in 170 to 190 kHz range, scan rate of 1 Hz, and resolution of 512 × 512 pixels. […]

SMILES	S100A9 fibril morphology change (AFM)
N[C@@H](Cc1ccc(O)c(O)c1)C(=O)N[C@@H](CC(=O)O)C(=O)N[C@@H](Cc1c[nH]cn1)C(=O)N[C@@H](Cc1ccc(O)c(O)c1)C(=O)O [DOPA-D-H-DOPA] (H-[Dopa]DH[Dopa]-OH)	tended to clump together, forming large clustered aggregates
N[C@@H](Cc1ccc(O)c(O)c1)C(=O)N[C@@H](CC(=O)O)C(=O)N[C@@H](Cc1c[nH]cn1)C(=O)O [DOPA-D-H] (H-[Dopa]-Asp-His-OH)	tended to clump together, forming large clustered aggregates

Same assay, conditions: molar ratio 1:10, text; S100A9 alone ca. 1.6 nm; PBS pH 7.4, 42 °C

SMILES	median height of S100A9 fibrils (AFM)
N[C@@H](Cc1ccc(O)c(O)c1)C(=O)N[C@@H](CC(=O)O)C(=O)N[C@@H](Cc1c[nH]cn1)C(=O)N[C@@H](Cc1ccc(O)c(O)c1)C(=O)O [DOPA-D-H-DOPA] (H-[Dopa]DH[Dopa]-OH)	3.0–3.2 nm

Target: T1, S100A9
Assay: ThT fluorescence kinetics of S100A9 amyloid formation in the presence of compounds
Format: biochemical
Details: S100A9:compound 1:1; 75 μM S100A9, 20 µM ThT, PBS pH 7.4, 42 °C; isodesmic polymerization fit; triplicate
From the text: The amyloid formation of S100A9 in the absence and presence of DOPA and cyclen-based compounds was monitored by ThT fluorescence and is presented in Figure 2. The amyloid formation correlates with the increase of the ThT fluorescence, and the initial parts of the fibrillation kinetic curves were fitted by using an isodesmic polymerization model to derive the kinetic rates; this model has previously been used in kinetic analysis of S100A9 amyloid self-assembly.
Figure 2 Kinetics of S100A9 amyloid formation in the absence and presence of DOPA and cyclen-based compounds monitored by ThT fluorescence. (a) Amyloid kinetics monitored at the ratio of S100A9 to corresponding compound of 1:1 and (b) 1:10, respectively. Symbols indicating the experimental data points for S100A9 alone or with respective compounds are shown in the caption and the corresponding lines indicate the fitting with the isodesmic polymerization model. The equation for isodesmic polymerization fitting is shown in ((b) inset). 75 μM S100A9, PBS, pH 7.4, and 42 °C.
ThT dye is known to bind specifically to β-sheet-containing amyloid structures and thus enables quantification of the kinetics of amyloid self-assembly. ThT assay was performed as described previously. First, 75 μM S100A9 was transferred into Nunc 96U black well plates with transparent bottoms and then 20 µM ThT was added to each well. The compounds dissolved in PBS were added to S100A9 solution with molar ratios of 1:1 and 1:10, respectively. Sample volumes were kept at 200 μL per well. The plates were immediately covered, placed into a Tecan F200 PRO plate reader, and incubated at 42 °C with 432 rpm orbital shaking every 10 min. ThT fluorescence was recorded every 10 min. Filters at 430 and 495 nm wavelengths with a 20 nm band width each were used for excitation and emission, respectively. Each sample was incubated in triplicate. ThT fluorescence intensities were normalized.

SMILES	k, kinetic rate constant of S100A9 amyloid formation
N[C@@H](Cc1ccc(O)c(O)c1)C(=O)N[C@@H](CC(=O)O)C(=O)N[C@@H](Cc1c[nH]cn1)C(=O)N[C@@H](Cc1ccc(O)c(O)c1)C(=O)O [DOPA-D-H-DOPA] (H-[Dopa]DH[Dopa]-OH)	60000 M⁻¹ s⁻¹
N[C@@H](Cc1ccc(O)c(O)c1)C(=O)N[C@@H](CC(=O)O)C(=O)N[C@@H](Cc1c[nH]cn1)C(=O)O [DOPA-D-H] (H-[Dopa]-Asp-His-OH)	63000 M⁻¹ s⁻¹

Same assay, conditions: S100A9:compound 1:1; 75 μM S100A9, PBS pH 7.4, 42 °C

SMILES	k/kS100A9
N[C@@H](Cc1ccc(O)c(O)c1)C(=O)N[C@@H](CC(=O)O)C(=O)N[C@@H](Cc1c[nH]cn1)C(=O)N[C@@H](Cc1ccc(O)c(O)c1)C(=O)O [DOPA-D-H-DOPA] (H-[Dopa]DH[Dopa]-OH)	0.91
N[C@@H](Cc1ccc(O)c(O)c1)C(=O)N[C@@H](CC(=O)O)C(=O)N[C@@H](Cc1c[nH]cn1)C(=O)O [DOPA-D-H] (H-[Dopa]-Asp-His-OH)	0.95

Same assay, conditions: S100A9:compound 1:10; 75 μM S100A9, 20 µM ThT, PBS pH 7.4, 42 °C; isodesmic polymerization fit; triplicate

SMILES	k, kinetic rate constant of S100A9 amyloid formation
N[C@@H](Cc1ccc(O)c(O)c1)C(=O)N[C@@H](CC(=O)O)C(=O)N[C@@H](Cc1c[nH]cn1)C(=O)N[C@@H](Cc1ccc(O)c(O)c1)C(=O)O [DOPA-D-H-DOPA] (H-[Dopa]DH[Dopa]-OH)	66000 M⁻¹ s⁻¹
N[C@@H](Cc1ccc(O)c(O)c1)C(=O)N[C@@H](CC(=O)O)C(=O)N[C@@H](Cc1c[nH]cn1)C(=O)O [DOPA-D-H] (H-[Dopa]-Asp-His-OH)	45000 M⁻¹ s⁻¹

Same assay, conditions: S100A9:compound 1:10; 75 μM S100A9, PBS pH 7.4, 42 °C

SMILES	k/kS100A9
N[C@@H](Cc1ccc(O)c(O)c1)C(=O)N[C@@H](CC(=O)O)C(=O)N[C@@H](Cc1c[nH]cn1)C(=O)N[C@@H](Cc1ccc(O)c(O)c1)C(=O)O [DOPA-D-H-DOPA] (H-[Dopa]DH[Dopa]-OH)	1
N[C@@H](Cc1ccc(O)c(O)c1)C(=O)N[C@@H](CC(=O)O)C(=O)N[C@@H](Cc1c[nH]cn1)C(=O)O [DOPA-D-H] (H-[Dopa]-Asp-His-OH)	0.69
